This is an account of results in ChEMBL document CHEMBL1201862, “PubChem BioAssay data set” (2004).

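Method: 48-hour compound exposure of cells in 96-well plates, five concentrations, linear interpolation of endpoints. GI50 marks 50% less growth.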 The source made the active and inactive calls. Cut-off read from the data, not from the text of the source: active = GI50 up to about 1.1 µM and inactive = higher.

Among the test systems are DLD-1; DMS-114; DMS-273; KM-20L2; LXFL 529; RXF 631; SNB-78; XF498; HOP-18.
What all share (assay): NCI-60 cell line screen, 48 h

Turning to `CCN1CCC(O)(c2ccc(OC)cc2)C(C(=O)c2ccc(OC)cc2)C1` (stereo unspecified), the GI50 was 16.9 µM (inactive) in the assay with DLD-1; 18.7 µM (inactive) in the assay with DMS-114; 22.8 µM (inactive) in the assay on DMS-273; 18.6 µM (inactive) in the assay with KM-20L2; 20 µM (inactive) in the assay on LXFL 529; 21.5 µM (inactive) in the assay with RXF 631. In addition, the GI50 with SNB-78 was 26.1 µM (inactive); in the assay on XF498, 17.6 µM (inactive).
Consider `Cc1cc2c3ccccc3n(C)c2c2c1C(=O)c1ccccc1C2=O`, for which the GI50 in the assay on DLD-1 was 14.6 µM (inactive); with DMS-114, 17.1 µM (inactive); in the assay with DMS-273, 19.4 µM (inactive); in the assay on LXFL 529 it was 16.9 µM (inactive); in the assay on RXF 631, 21.9 µM (inactive); in the assay on XF498, 15.9 µM (inactive).
For `O=C(Nc1cc(C(F)(F)F)ccc1Cl)C(=O)C(C(=O)c1ccc2ccccc2c1)C1OC(=O)c2ccccc21` (stereo unspecified), the GI50 in the assay on DLD-1 is 9.82 µM (inactive); with DMS-114, 11.4 µM (inactive); with KM-20L2 it was 20.4 µM (inactive); with LXFL 529 it was 5.11 µM (inactive).
Consider `CN(C)CCn1c2ccccc2c2nc3cc4ccccc4cc3nc21`, for which the GI50 in the assay with DLD-1 is 3.81 µM (inactive); with DMS-114 it was 6.47 µM (inactive); with DMS-273, 3.13 µM (inactive); in the assay with KM-20L2 it was 3.3 µM (inactive); with LXFL 529, 4.95 µM (inactive); in the assay with XF498, 7.66 µM (inactive).
`Cc1cc2c(Br)cc(Br)c(O)c2nc1C(=O)c1ccccc1`: the GI50 in the assay on DLD-1 is 36.6 µM (inactive); with DMS-114, 31.6 µM (inactive); in the assay on DMS-273, 19 µM (inactive); with HOP-18, 18.5 µM (inactive); in the assay with KM-20L2, 28.4 µM (inactive); with LXFL 529 it was 21.1 µM (inactive). The GI50 in the assay with SNB-78 was 50.1 µM (inactive).
Consider `CCc1cccc(CC)c1NC(=O)CC1SC(N)=NC1=O` (stereo unspecified), for which the GI50 in the assay on DMS-114, with DMS-273, with HOP-18, in the assay on LXFL 529, in the assay on RXF 631 and with SNB-78 was > 100 µM (inactive) in each case. Besides, the GI50 with XF498 is > 100 µM (inactive).
With `O=C(COc1ccc(Cl)cc1)N1N=C(c2ccc([N+](=O)[O-])o2)CC1(O)c1ccccc1` (stereo unspecified), the GI50 was 4.66 µM (inactive) in the assay on DLD-1; 5.28 µM (inactive) in the assay on DMS-273; 12.3 µM (inactive) in the assay on KM-20L2; 7.87 µM (inactive) in the assay on RXF 631; 13.8 µM (inactive) in the assay on SNB-78; 10.5 µM (inactive) with XF498.
`CC(=O)/C=C/c1ccc(C)cc1`: the GI50 in the assay on DLD-1, in the assay on DMS-114, in the assay on DMS-273, with HOP-18, in the assay with KM-20L2 and in the assay on LXFL 529 was > 100 µM (inactive) each time. Also, the GI50 in the assay on SNB-78 was > 100 µM (inactive).
For `COC1CC(OS(=O)(=O)c2ccc(C)cc2)C(OC(=O)c2ccccc2)C(C)O1` (stereo unspecified), the GI50 with DLD-1 was > 10 µM (inactive); in the assay with DMS-114, > 100 µM (inactive); in the assay with DMS-273, > 10 µM (inactive); in the assay with HOP-18 it was > 10 µM (inactive); with KM-20L2 it was > 10 µM (inactive); with LXFL 529, > 10 µM (inactive). The GI50 is > 10 µM (inactive) in the assay with SNB-78 and > 100 µM (inactive) in the assay with XF498.
As for `Cc1c(CCl)c(=O)oc2c(C)c3occ(CCl)c(=O)c3cc12`, the GI50 in the assay on DMS-114 was 20.2 µM (inactive); with HOP-18, 17.4 µM (inactive); in the assay with KM-20L2 it was > 100 µM (inactive); in the assay on LXFL 529, 15.2 µM (inactive); in the assay with RXF 631 it was 16 µM (inactive).
In the case of `O=C(NCCS(=O)(=O)N1C(=O)C2CCCN2C(=O)[C@@H]1Cc1ccccc1)OCc1ccccc1` (stereo partly specified), the GI50 in the assay on DLD-1 is > 100 µM (inactive); in the assay on DMS-114, 22.4 µM (inactive); with HOP-18, > 100 µM (inactive); in the assay on KM-20L2 it was 45.8 µM (inactive); with LXFL 529, 34 µM (inactive); in the assay on RXF 631 it was 45.6 µM (inactive). For the same compound, the GI50 in the assay on SNB-78 was 61.9 µM (inactive); in the assay with XF498, 0.838 µM (active).
Take `CC(C)(C)C1(O)Cc2ccccc2C(=O)O1` (stereo unspecified): the GI50 with DLD-1, in the assay with DMS-114, in the assay with DMS-273, in the assay on HOP-18, in the assay with KM-20L2 and in the assay with LXFL 529 was > 100 µM (inactive) throughout. The GI50 in the assay on RXF 631 and in the assay with SNB-78 was > 100 µM (inactive) throughout.
Consider `CCC1(OC(=O)CNC)C(=O)OCc2c1cc1n(c2=O)Cc2cc3ccccc3nc2-1` (stereo unspecified), for which the GI50 in the assay with DLD-1 is 0.294 µM (active); with DMS-273 it was < 0.01 µM (active); with HOP-18, 0.0177 µM (active); in the assay with KM-20L2, 0.0336 µM (active); in the assay on LXFL 529, 0.207 µM (active); with RXF 631, < 0.01 µM (active). In addition, the GI50 with SNB-78 was 0.263 µM (active).
Take `CCOC(=O)Cc1csc(Nc2ccc(OCC)cc2)n1`: the GI50 with DLD-1 was > 100 µM (inactive); in the assay on DMS-114 it was 69.2 µM (inactive); in the assay on HOP-18 it was > 100 µM (inactive); in the assay on KM-20L2, > 100 µM (inactive); with LXFL 529 it was 87.3 µM (inactive); in the assay on RXF 631, > 100 µM (inactive). For the same compound, the GI50 in the assay with SNB-78 was > 100 µM (inactive); with XF498 it was 38.7 µM (inactive).
As for `O=C1CC2C(=O)N(Cc3ccccc3)C1C=C2S(=O)(=O)c1ccccc1` (stereo unspecified), the GI50 with DLD-1, with DMS-114, in the assay with HOP-18, in the assay on KM-20L2, with LXFL 529 and in the assay on SNB-78 was > 100 µM (inactive) throughout. In the assay with XF498, the GI50 is > 100 µM (inactive).
On to `N#CCc1nnc(N)o1`, for which the GI50 in the assay with DLD-1, with DMS-273, in the assay with KM-20L2, in the assay on LXFL 529, with RXF 631 and with SNB-78 was > 100 µM (inactive) throughout. In the assay with XF498, the GI50 is > 100 µM (inactive).
With `COc1cc2cc(c1Cl)N(C)C(=O)C[C@H](OC(=O)[C@H](C)N(C)C(C)=O)[C@]1(C)O[C@H]1[C@H](C)[C@@H]1C[C@@](O)(NC(=O)O1)[C@H](OC)/C=C/C=C(/C)C2`, the GI50 is 0.025 µM (active) with DLD-1; 0.0323 µM (active) in the assay on DMS-114; 0.01 µM (active) in the assay on DMS-273; 0.695 µM (active) in the assay with HOP-18; 0.0308 µM (active) in the assay with KM-20L2; 0.01 µM (active) in the assay on LXFL 529. The GI50 in the assay on SNB-78 is 0.025 µM (active); in the assay with XF498 it was 0.0628 µM (active).
Regarding `CC(C)N(C(=O)C12C3C4C1C1C2C3C41C#N)C(C)C` (stereo unspecified), the GI50 with DLD-1 was > 72.8 µM (inactive); with DMS-114, > 100 µM (inactive); in the assay with DMS-273, > 71.8 µM (inactive); with HOP-18 it was > 100 µM (inactive); with KM-20L2, > 100 µM (inactive); with LXFL 529, > 100 µM (inactive). Besides, the GI50 with RXF 631, with SNB-78 and with XF498 was > 100 µM (inactive) each time.
Consider `C=C1C[C@]23CCC4C(C)(C)C(=O)CC[C@]4(C)C2C[C@H]1C(O)C3=O` (stereo partly specified), for which the GI50 with DLD-1, in the assay with HOP-18, in the assay on KM-20L2, with LXFL 529, with RXF 631 and in the assay on SNB-78 was > 75 µM (inactive) each time. The GI50 in the assay with XF498 was > 75 µM (inactive).
For the compound `CC1(C)CCc2cc3c(cc2O1)OCC1c2cc4c(cc2OC31)OCO4` (stereo unspecified), the GI50 in the assay on DLD-1 is > 100 µM (inactive); in the assay with DMS-114, > 100 µM (inactive); with HOP-18 it was > 100 µM (inactive); in the assay on KM-20L2 it was > 100 µM (inactive); in the assay with LXFL 529, > 100 µM (inactive); with RXF 631, 55.3 µM (inactive). Moreover, in the assay on XF498, the GI50 was 52.1 µM (inactive).
Turning to `Cc1cccc(C)c1NC(=O)CCCC(=O)C1/C(=N/NC(=O)CC#N)CCC/C1=N\NC(=O)CC#N` (stereo unspecified), the GI50 with DLD-1, with DMS-114, with DMS-273, in the assay with HOP-18, in the assay on KM-20L2 and in the assay on LXFL 529 was > 100 µM (inactive) each time. Moreover, the GI50 in the assay on RXF 631, with SNB-78 and with XF498 was > 100 µM (inactive) in each case.
As for `COc1ccc(C2=C3c4cc(OC)c(OC)cc4CCN3C(=S)SS2)cc1OC`, the GI50 was 33.7 µM (inactive) with DLD-1; 65.2 µM (inactive) in the assay with DMS-114; 43.5 µM (inactive) with DMS-273; > 100 µM (inactive) with HOP-18; 75.9 µM (inactive) in the assay with KM-20L2; 52.5 µM (inactive) with LXFL 529. Also, the GI50 with SNB-78 was 80.4 µM (inactive).
`C=C1CC(c2ccc(O)c(OC)c2)Oc2c(OC)cccc21` (stereo unspecified): the GI50 is 37 µM (inactive) in the assay with DLD-1; 20.4 µM (inactive) in the assay on DMS-114; 18.3 µM (inactive) with DMS-273; > 100 µM (inactive) in the assay on HOP-18; > 100 µM (inactive) in the assay on KM-20L2; 26.2 µM (inactive) with LXFL 529. Besides, the GI50 in the assay with SNB-78 is 33.2 µM (inactive).
Regarding `CCCCCCCc1cc(OC(=O)c2c(C)cc(OC)cc2O)cc(O)c1C(=O)O`, the GI50 in the assay on DLD-1 is 19.8 µM (inactive); in the assay with DMS-273, 28.8 µM (inactive); in the assay with KM-20L2 it was 21.2 µM (inactive); with LXFL 529, 18.2 µM (inactive); in the assay on RXF 631, 25.5 µM (inactive); in the assay on SNB-78, 29.2 µM (inactive).
Take `C=CC(=O)NC(=N)NC#N`: the GI50 in the assay with DLD-1 is 153 µM (inactive); with DMS-114, 114 µM (inactive); with HOP-18, 148 µM (inactive); in the assay with KM-20L2, 150 µM (inactive); in the assay on LXFL 529, 124 µM (inactive); with SNB-78, 179 µM (inactive). The GI50 in the assay on XF498 is 97.3 µM (inactive).
